A word on the Ki: it is a measure of affinity in units of concentration, obtained from inhibition or displacement. The low end stands for a stronger hold on the target, the high end for a looser hold on the target.

The text below walks through data of patent US6462081B1, “5-thia-ω-substituted phenyl-prostaglandin E derivatives, process for producing the same and drugs containing the same as the active ingredient” (Ono Pharmaceutical Co., Ltd., priority 1998, dated 2002).

The subject of data set [1] is rat. Nature of the data set: Toxicity: maximum tolerance dose by i.v. route in rat. Format: in vivo. On the procedure: The toxicity of the compounds of the formula (I) of the present invention is very low and therefore, it is confirmed that these compounds are safe for use as medicine. For example, the maximum tolerance dose of the compound of Example 1 by i.v. route in rat was 30 mg/kg body weight or more.

Data set [2] addresses T1, EP3α (Mus musculus, UniProt P30557).
T1 construct: expressed in transfected cells; host or cells: CHO cells, membrane fraction
T1 sequence (P30557 1-365): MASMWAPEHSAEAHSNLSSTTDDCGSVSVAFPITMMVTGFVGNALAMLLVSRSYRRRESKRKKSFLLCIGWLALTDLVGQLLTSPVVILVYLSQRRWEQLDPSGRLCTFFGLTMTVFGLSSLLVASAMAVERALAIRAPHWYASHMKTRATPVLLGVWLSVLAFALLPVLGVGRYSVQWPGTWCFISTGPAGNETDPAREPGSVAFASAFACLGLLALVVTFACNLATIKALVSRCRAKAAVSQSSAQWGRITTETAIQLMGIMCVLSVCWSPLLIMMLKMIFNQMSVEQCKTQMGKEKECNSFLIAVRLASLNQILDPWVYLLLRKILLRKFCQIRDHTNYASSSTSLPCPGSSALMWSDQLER
Nature of the data set: Binding assay using CHO cell membrane expressing prostanoid receptor subtype, [3H]-PGE2 competition. The conditions noted are these: CHO cell membrane fraction, 2.5 nM [3H]-PGE2, 1 hour at room temperature, pH6.0. On the procedure: (§1) For example, in a standard laboratory test, such effects of the compound of the present invention were confirmed by binding assay using cell expressing the prostanoid receptor subtypes. (i) Binding assay using cell expressing the prostanoid receptor subtypes The preparation of membrane fraction was carried out according to the method of Sugimoto et al (J. Biol. Chem., 267, 6463-6466 (1992)), using CHO cell expressing prostanoid receptor subtype (mouse EP1, EP2, EP3, and EP4, and human IP).
(§2) The reaction solution (200 μl) containing membrane fraction (0.5 mg/ml), [^3H]-PGE2 was incubated for 1 hour at room temperature. The reaction was terminated by addition of 3 ml of ice-cold buffer. The mixture was rapidly filtered under reduced pressure through a glass filter (GF/B). The radioactivity associated with the filter was measured by liquid scintillation counter.
(§3) Kd and Bmax values were determined from Scatchard plots [Ann. N.Y. Acad. Sci., 51, 660 (1949)]. Non-specific binding was calculated as the amount bound in the presence of an excess (2.5 μM) of unlabeled PGE2. In the experiment for competition of specific [^3H]-PGE2 binding by the compounds of the present invention, [^3H]-PGE2 was added at a concentration of 2.5 nM and the compound of the present invention was added at various concentrations. The following buffer was used in all reactions. Buffer: 10 mM potassium phosphate (pH6.0), 1 mM EDTA, 10 mM MgCl2, 0.1 M NaCl
(§4) The dissociation constant Ki (μM) of each compound was calculated by the following equation.

Data set [3] addresses T2, mouse EP1 (Mus musculus, UniProt P35375).
T2 construct: expressed in transfected cells; host or cells: CHO cells, membrane fraction
T2 sequence (P35375 1-405): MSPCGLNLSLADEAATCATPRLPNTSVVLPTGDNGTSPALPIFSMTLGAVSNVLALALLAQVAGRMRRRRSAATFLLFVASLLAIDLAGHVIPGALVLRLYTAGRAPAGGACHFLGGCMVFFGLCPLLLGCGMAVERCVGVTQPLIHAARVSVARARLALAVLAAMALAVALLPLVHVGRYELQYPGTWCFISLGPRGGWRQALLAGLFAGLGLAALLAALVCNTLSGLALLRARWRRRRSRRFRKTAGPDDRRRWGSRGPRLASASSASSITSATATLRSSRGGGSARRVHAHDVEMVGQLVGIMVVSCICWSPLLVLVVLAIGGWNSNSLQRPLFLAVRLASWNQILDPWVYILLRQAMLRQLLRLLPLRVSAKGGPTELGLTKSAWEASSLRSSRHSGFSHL
The description is as above. To be noted: CHO cell membrane fraction, 2.5 nM [3H]-PGE2, 1 hour at room temperature, pH6.0. As to the method: as §1, §2, §3, §4

The target of data set [4] is T3, mouse EP4 (Mus musculus, UniProt P32240).
T3 construct: expressed in transfected cells; host or cells: CHO cells, membrane fraction
Described as above. To be noted: CHO cell membrane fraction, 2.5 nM [3H]-PGE2, 1 hour at room temperature, pH6.0. On the procedure:
as §1, §2, §3, §4

T3 sequence (P32240 whole entry): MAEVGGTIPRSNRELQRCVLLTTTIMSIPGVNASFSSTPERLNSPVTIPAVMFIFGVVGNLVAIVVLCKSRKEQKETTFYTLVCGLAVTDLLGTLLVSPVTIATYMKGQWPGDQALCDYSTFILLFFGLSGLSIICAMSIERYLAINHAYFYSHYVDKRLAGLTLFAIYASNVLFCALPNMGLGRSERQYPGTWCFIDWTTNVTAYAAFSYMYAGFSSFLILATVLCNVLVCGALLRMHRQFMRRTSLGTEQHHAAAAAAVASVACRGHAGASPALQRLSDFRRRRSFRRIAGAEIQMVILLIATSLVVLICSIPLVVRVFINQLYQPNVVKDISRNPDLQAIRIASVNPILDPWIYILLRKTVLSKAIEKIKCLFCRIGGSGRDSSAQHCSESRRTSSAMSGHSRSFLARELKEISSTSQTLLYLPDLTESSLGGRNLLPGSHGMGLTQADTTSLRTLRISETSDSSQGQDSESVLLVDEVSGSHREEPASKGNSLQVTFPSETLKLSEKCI

On to `COCc1cccc(C[C@H](O)/C=C/[C@H]2[C@H](O)CC(=O)[C@@H]2CCSCCCC(=O)OC)c1` [Example 1, (11α,13E,15α)-9-oxo-11,15-Dihydroxy-16-(3-methoxymethylphenyl)-17,18,19,20-tetranor-5-thiaprost-13-enoic Acid·Methyl Ester], for which the maximum tolerance dose in data set [1] is reported as at least 30 mg/kg body weight.
In the case of `COCc1cccc(C[C@H](O)/C=C/[C@@H]2[C@@H](CCSCCCC(=O)O)[C@H](Cl)C[C@H]2O)c1` [3 (2), (9β,11α,13E,15α)-9-Chloro-11,15-dihydroxy-16-(3-methoxymethylphenyl)-17,18,19,20-tetranor-5-thiaprost-13-enoic Acid], the Ki in data set [2] was over 10 µM; in data set [3], over 10 µM; in data set [4] it was 0.0079 µM.
With `COCc1cccc(C[C@H](O)/C=C/[C@H]2[C@H](O)CC(=O)[C@@H]2CCSCCCC(=O)O)c1` [Example 3, (11α,13E,15α)-9-oxo-11,15-Dihydroxy-16-(3-methoxymethylphenyl)-17,18,19,20-tetranor-5-thiaprost-13-enoic Acid], the Ki in data set [2] was 0.84 µM; in data set [3], over 10 µM; in data set [4], 0.0038 µM.
The matching figures for `COCc1cccc(C[C@H](O)/C=C/[C@@H]2[C@@H](CCSCCCC(=O)O)[C@H](F)C[C@H]2O)c1` [3 (3), (9β,11α,13E,15α)-9-Fluoro-11,15-dihydroxy-16-(3-methoxymethylphenyl)-17,18,19,20-tetranor-5-thiaprost-13-enoic Acid]: 1.5 µM, over 10 µM and 0.018 µM.
The matching figures for `CCCOCc1cccc(C[C@H](O)/C=C/[C@H]2[C@H](O)CC(=O)[C@@H]2CCSCCCC(=O)O)c1` [3 (5), (11α,13E,15α)-9-oxo-11,15-Dihydroxy-16-(3-n-propyloxymethylphenyl)-17,18,19,20-tetranor-5-thiaprost-13-enoic Acid]: 0.57 µM, over 10 µM and 0.015 µM.
The matching figures for “(11α,13E,15α)-9-oxo-11,15-Dihydroxy-16-(3-ethoxymethylphenyl)-17,18,19,20-tetranor-5-thiaprost-13-enoic Acid [3 (4)]”: 0.5 µM, over 10 µM and 0.01 µM.
On to `COCc1cccc(C[C@H](O)CC[C@H]2[C@H](O)CC(=O)[C@@H]2CCSCCCC(=O)O)c1` [Example 6, (11α,15α)-9-oxo-11,15-Dihydroxy-16-(3-methoxymethylphenyl)-17,18,19,20-tetranor-5-thiaprostanoic Acid], for which the inhibition constant Ki in data set [2] is 0.46 µM; in data set [3], over 10 µM; in data set [4], 0.0062 µM.
On the same counts, the results for `Cc1cc(C[C@H](O)/C=C/[C@H]2[C@H](O)CC(=O)[C@@H]2CCSCCCC(=O)O)ccc1O` [3 (1), (11α,13E,15α)-9-oxo-11,15-Dihydroxy-16-(3-methyl-4-hydroxyphenyl)-17,18,19,20-tetranor-5-thiaprost-13-enoic Acid] are 2.9 µM, over 10 µM and 0.0024 µM.
